Measured values from patent US6903107B1, “Serine protease inhibitor” (Akzo Nobel N.V., priority 1998, dated 2005).

target: T1, Human thrombin (Homo sapiens, UniProt P00734); experiment: Anti-thrombin assay (hydrolysis of chromogenic substrate S-2238); format: biochemical; settings: chromogenic substrate S-2238, TNP buffer, pH 7.4, 37° C.; read-out: Antithrombin activity: IC50
T1 construct: purchased Centraal Laboratorium voor Bloedtransfusie, Amsterdam, The Netherlands
Description: Thrombin (Factor IIa) is a factor in the coagulation cascade. The anti-thrombin activity of compounds of the present invention was assessed by measuring spectrophotometrically the rate of hydrolysis of the chromogenic substrate s-2238 exterted by thrombin. This assay for anti-thrombin activity in a buffer system was used to assess the IC50-value of a test compound.
Test medium: Tromethamine-NaCl-polyethylene glycol 6000 (TNP) buffer
Reference compound: 12581 (Kabi)
Vehicle: TNP buffer. Solubilisation can be assisted with dimethylsulphoxide, methanol, ethanol, acetonitrile or tert.-butyl alcohol which are without adverse effects in concentrations up to 2.5% in the final reaction mixture.
Technique Reagents* • 1. Tromethamine-NaCl (TN) buffer Composition of the buffer:
• The pH of the solution is adjusted to 7.4 at 37° C. with HCl (10 mmol.l^−1). • 2. TNP buffer Polyethylene glycol 6000 is dissolved in TN buffer to give a concentration of 3 g.l^−1. • 3. S-2238 solution One vial S-2238 (25 mg; Kabi Diagnostica, Sweden) is dissolved in 20 ml TN buffer to give a concentration of 1.25 mg.ml^−1 (2 mmol.l^−1). • 4. Thrombin solution Human thrombin (16 000 nKat.vial^−1; Centraal Laboratorium voor Bloedtransfusie, Amsterdam, The Netherlands) is dissolved in TNP buffer to give a stock solution of 835 nKat.ml^−1. Immediately before use this solution is diluted with TNP buffer to give a concentration of 3.34 nKat.ml^−1. • All ingredients used are of analytical grade • For aqueous solutions ultrapure water (Milli-Q quality) is used.
Preparation of test and reference compound solutions
The test and reference compounds are dissolved in Milli-Q water to give stock concentrations of 10^−2 mol.l^−1. Each concentration is stepwise diluted with the vehicle to give concentrations of 10^−3, 10^−4 and 10^−5 mol.l^−1. The dilutions, including the stock solution, are used in the assay (final concentrations in the reaction mixture: 3·10^−3; 10^−3; 3·10^−4; 10^−4; 3.10^−5; 10^−5; 3.10^−6 and 10^−6 mol.l^−1, respectively).
At room temperature 0.075 ml and 0.025 ml test compound or reference compound solutions or vehicle are alternately pipetted into the wells of a microtiter plate and these solutions are diluted with 0.115 ml and […] TNP buffer, respectively. An aliquot of 0.030 ml S-2238 solution is added to each well and the plate is pre-heated and pre-incubated with shaking in an incubator (Amersham) for 10 min. at 37° C. Following pre-incubation the hydrolysis of S-2238 is started by addition of 0.030 ml thrombin solution to each well. The plate is incubated (with shaking for 30 s) at 37° C. Starting after 1 min of incubation, the absorbance of each sample at 405 nm is measured every 2 min. for a period of 90 min. using a kinetic microtiter plate reader (Twinreader plus, Flow Laboratories). All data are collected in an IBM personal computer using LOTUS-MEASURE. For each compound concentration (expressed in mol.l^−1 reaction mixture) and for the blank the absorbance is plotted versus the reaction time in min.
Evaluation of responses: For each final concentration the maximum absorbance was calculated from the assay plot. The IC50-value (final concentration, expressed in μmol.l^−1, causing 50% inhibition of the maximum absorbance of the blank) was calculated using the logit transformation analysis according to Hafner et al. (Arzneim.-Forsch./Drug Res. 1977; 27(II): 1871-3).

IC50 [nM] | Compound
410 | CC1(C)C2CCC1(CS(=O)(=O)NC(CC1CCCCC1)C(=O)N1CCCCC1CCOc1ccc3c(N)nccc3c1)C(=O)C2 [Example 1, (2S)-1-(N-(−)-camphorsulphonyl-D-cyclohexylalaninyl)-2-(2-(1-amino-isoquinolin-6-oxy)-eythyl)-piperidine]
320 | Nc1nccc2cc(OCCC3CCCCN3C(=O)C(CC3CCCCC3)NCC(=O)NC3CCCC3)ccc12 [Example 9, 1-(N-cyclopentylaminocarbonylmethyl-D-cyclohexylalaninyl)-2-(2-(1-amino-isoquinolin-6-oxy)-ethyl)-piperidine]
1350 | Nc1nccc2cc(OCCC3CCCCN3C(=O)C(CC3CCCCC3)NCC(=O)Nc3ccccc3)ccc12 [Example 10, 1-(N-anilinocarbonylmethyl-D-cyclohexylalaninyl)-2-(2-(1-amino-isoquinolin-6-oxy)-ethyl)-piperidine]
500 | Nc1nccc2cc(OCCC3CCCCN3C(=O)C(CC3CCCCC3)NC3CCCCC3)ccc12 [Example 11, 1-(N-cyclohexyl-D-cyclohexylalanine)-2-(2-(1-amino-isoquinolin-6-oxy)-ethyl)-piperidine]

Compound | IC50 [nM]
1-(N-cyclooctyl-γ-tert-butyl-L-glutamyl)-2-(2-(1-amino-isoquinolin-6-oxy)-ethyl)-piperidine [Example 8] | 610
